Test [1] concerns UV-B induced secretion of prostaglandin E2 (PGE2). Put plainly: UV-B induced secretion of PGE2 in keratinocyte HaCaT cells (ELISA). The class given is cell-based, Human. Conditions: component concentrations (μg/ml) per sample. The procedure:
(§1) This assay was conducted on Human Epidermal Keratinocyte cells (HaCaT) and was carried out in triplicates. After reaching the required confluency, the cells were treated with pre-prepared growth medium containing the test component(s) at a final volume of 200 μL/well. Growth medium without test component was used to prepare the blank samples. The cells were incubated for 24 hr. Then, the medium was replaced with PBS (containing the test component) and the cells were subjected to 25 mJ/cm^2 (Table 2) or 12.5 mJ/cm^2 (Table 3) UV-B irradiation. The flux was determined by an external […]. Immediately after irradiation, the PBS was aspirated, and the cells were further incubated with freshly prepared media incubated for 24 hr. at 37° C. with 5% CO2. After incubation, the conditioned medium of the different treatment groups was collected under standardized conditions and centrifuged at 250×g for 5 min to remove particulates. Clear supernatants were frozen at -70° C. until analyses. The UVB-induced cytokines secretion of PGE2 was measured by commercial ELISA, according to the manufacturer's instructions. The percentage inhibition was determined by comparing PGE2 levels in the test samples with PGE2 level in the stimulated controls. Example 1 was repeated in HaCaT cells, using the lower UV-B dosage (12.5 mJ/cm^2 flux). In addition, an extra test component was used (docosahexaenoic acid).
A general note: ELISA stands for enzyme-linked immunosorbent assay.

The test system of test [2] is UV-B induced secretion of interleukin 8 (IL-8). Put plainly: UV-B induced secretion of IL-8 in HaCaT cells (ELISA). The class given is cell-based, Human. To be noted: UV-B as in Example 1, vs stimulated controls, component concentrations (μg/ml) per sample. The procedure:
as §1, with “analyses. […]” for “analyses. The UVB-induced cytokines secretion of PGE2 was measured by commercial ELISA, according to the manufacturer's instructions.”, “comparing IL-8” for “comparing PGE2”, “with the IL-8” for “with PGE2”, “controls.” for “controls. Example 1 was repeated in HaCaT cells, using the lower UV-B dosage (12.5 mJ/cm^2 flux). In addition, an extra test component was used (docosahexaenoic acid).”

The next test relates to collagen production. To be noted: skin organ cultures, inhibition of PGE2 synthesis; cited from earlier work.
[3] abbreviates: 25 mJ/cm^2 UV-B, 24 hr pre-incubation, vs stimulated controls.
Setting [4] is: lower UV-B dosage 12.5 mJ/cm^2, vs stimulated controls.

For `C=C(C)[C@@H]1CCC(C)=C[C@H]1c1c(O)cc(CCCCC)cc1O` [Sample 1, Cannabidiol], the “Inhibition (%) PGE2” value in test [1] (setting [3]) is recorded as 0%; in test [1] (setting [4]), −11%. Besides, the “Inhibition (%) IL-8” value in test [2] is recorded as −1%.

With `CC/C=C\C/C=C\C/C=C\C/C=C\C/C=C\CCCC(=O)O` [Sample 3, eicosapentaenoic acid], the entries for the “Inhibition (%) PGE2” value in test [1] (setting [3]) and in test [1] (setting [4]) were −11% and −3%, respectively. For the same molecule, the “Inhibition (%) IL-8” value in test [2] is −6%.

As to `C=C(C)[C@@H]1CCC(C)=C[C@H]1c1c(O)cc(CCCCC)cc1O` [Sample 2, Cannabidiol], the “Inhibition (%) PGE2” value in test [1] (setting [3]) is 17%; in test [1] (setting [4]) it was −8%. In addition, the “Inhibition (%) IL-8” value in test [2] is recorded as 3%.

In the case of `CC/C=C\C/C=C\C/C=C\C/C=C\C/C=C\CCCC(=O)O` [Sample 4, eicosapentaenoic acid], the “Inhibition (%) PGE2” value in test [1] (setting [3]) is on record as 1%; in test [1] (setting [4]), 5%. Also, the “Inhibition (%) IL-8” value in test [2] is −16%.

`O=C(O)Cc1ccccc1Nc1c(Cl)cccc1Cl` [diclofenac]: in the test on collagen production, the collagen production entry is “enhanced collagen production”.

Values taken from patent US20220142884A1, “TREATMENT OF AGING OR UV-DAMAGED SKIN” (Echo Pharmaceuticals B.V., priority 2019, published 2022).
